Test results reported in a melting point compilation (Tetko et al.).

| Structure (SMILES) | melting point [°C] |
| --- | --- |
| Cc1ccc(-c2ccsc2C(=O)O)cc1 | 134 to 136 |
| COc1ccc(Cc2nnc(S)n2N)cc1OC | 177 to 179 |
| CSCc1c(C(=O)O)oc2ccccc12 | 100 to 102 |
| CCC1(c2ccc(C)cc2)CC(=O)NC1=O (stereo not given) | 76 to 78 |
| CC(=O)c1ccc(S(N)(=O)=O)cc1 | 178 to 180 |
| Nc1ncc(-c2ccccc2)[nH]1 | 139 to 141 |
| Clc1cc2nc[nH]c2nc1Cl | 119 to 121 |
| N#Cc1cnn(-c2nccs2)c1N | 165 to 167 |
| O=c1cc(CO)nc2sccn12 | 193 to 195 |
| N#Cc1c(Cl)nc(Cl)c(Cl)c1Cl | 148 to 150 |
| Nc1ccn(-c2ncccc2F)n1 | 89 to 91 |
| O=C(O)c1cn(-c2cccc(C(F)(F)F)c2)nn1 | 149 to 151 |
| Nc1ccnc(C(=O)O)c1 | 198 to 200 |
| O=C(O)c1c[nH]cc1-c1ccc([N+](=O)[O-])cc1 | 209 to 211 |
| O=C(O)c1cccnc1SCc1cccc(Br)c1 | 186 to 188 |
| COc1ccc(S(=O)(=O)Cl)c(C)c1F | 90 to 92 |
| O=C(O)c1ccc2c(=O)n(-c3ccccc3)c(S)nc2c1 | 368 to 370 |
| Cc1ccc2[nH]c(C(=O)O)cc2c1C | 243 to 245 |
| O=C(O)C=Cc1cc(Cl)ccc1OCc1ccc(Cl)cc1 | 162 to 164 |
| O=C(O)Cc1ccc(S(=O)(=O)Cl)s1 | 85 to 87 |
| Cc1ccccc1-n1c(C)cc(C(=O)CCl)c1C | 65 to 67 |
| O=C1CS/C(=C/C(=O)c2cccc(Cl)c2)N1 | 207 to 209 |
| Cc1c(C(N)=O)sc2nc[nH]c(=O)c12 | 283 to 285 |
| COCCNc1ccc(C#N)cc1 | 66 to 68 |
| Nc1cc(-c2cccc(F)c2F)n[nH]1 | 117 to 119 |

| Structure (SMILES) | melting point [°C] |
| --- | --- |
| O=C(O)C=Cc1ccc(OC(F)(F)C(F)C(F)(F)F)cc1 (stereo not given) | 159 to 163 |
| Nc1cccc(N2CCN(CCc3ccccc3)CC2)c1 | 96 to 98 |
| OCc1nc2cc(C(F)(F)F)ccc2s1 | 96 to 98 |
| Cc1cc(S(=O)(=O)Cl)cc(C)c1F | 88 to 90 |
| Cc1oc2nc(CCl)nc(N)c2c1C | 179 to 181 |
| Cc1noc(C(F)(F)F)c1C(=O)O | 140 to 142 |
| O=S1CCNc2ccccc21 (stereo not given) | 201 to 203 |
| O=C(O)c1cnc2ccccn2c1=O | 251 to 253 |
| Cc1ccc2ncc(C#N)n2c1 | 126 to 128 |
| CC1(CCCC(=O)O)NC(=O)NC1=O (stereo not given) | 149 to 151 |
| CCn1cc(C=O)c2ccccc21 | 104 to 106 |
| O=C(O)c1ccccc1SCc1ccsc1 | 213 to 215 |
| O=C(O)CC=Cc1ccc(F)cc1 | 111 to 113 |
| Cc1cc(COc2ccc(C(=O)O)cc2Br)on1 | 209 to 211 |
| c1cn(C2CCNCC2)cn1 | 135 to 137 |
| O=C(O)c1cc(Cl)c[nH]1 | 182 to 184 |
| Nc1sc2c(c1C(=O)O)CCSC2 | 169 to 171 |
| NS(=O)(=O)c1ccc(F)cc1C(=O)O | 218 to 220 |
| CCOC(=O)CC(O)c1ccc(OCc2ccccc2)cc1 (stereo not given) | 61 to 63 |
| CC(=NO)c1ccc(OCC(F)(F)F)cc1 | 127 to 129 |
| CCCNc1ccc(Cl)cc1N | 62 to 64 |
| O=Cc1cc(Cl)c2c(c1)OCCO2 | 79 to 83 |
| O=S(=O)(Cl)c1ccc(Cl)nc1 | 48 to 50 |
| CN(C)S(=O)(=O)c1ccc(/C=C/C(=O)O)cc1 | 268 to 270 |
| CN(C(=O)CC#N)c1ccccc1 | 86 to 88 |

| Structure (SMILES) | melting point [°C] |
| --- | --- |
| Cc1nc(N)sc1Cc1cccc(Br)c1 | 86 to 88 |
| Clc1ccc(Cl)c(-c2cc[nH]n2)c1 | 143 to 145 |
| NNc1cccnc1Cl | 149 to 151 |
| CCC1(CC)CC(=O)NC1=O | 82 to 84 |
| O=C(O)c1csc(-c2ccc3c(c2)OCO3)n1 | 222 to 224 |
| CN(C)c1cc(C#N)c2ccccc2n1 | 119 to 121 |
| COC(=O)C=Cn1c(=O)ccn2ncnc12 | 239 to 241 |
| CN(C)S(=O)(=O)Nc1ccccc1Br | 78 to 80 |
| Nc1nc2cc(Br)ccc2n1Cc1ccccc1 | 213 to 215 |
| CN(CCO)c1ccc([N+](=O)[O-])cc1 | 97 to 99 |
| CN(C)CCN=C=S | 35 to 37 |
| NC(N=O)=C1NC=Cc2ccccc21 | 125 to 127 |
| Cc1cc(C)nc(N)c1 | 63 to 64 |
| O=C1CCCc2cc[nH]c21 | 94 to 96 |
| CCSc1ccccc1C(=O)O | 135 to 137 |
| Nc1ccc(Oc2ccnc3ccccc23)c(F)c1 | 158 to 160 |
| Nc1nnc(-c2cccs2)[nH]1 | 202 to 204 |
| COC(=O)c1ccc(S(N)(=O)=O)cc1Cl | 124 to 126 |
| CSCc1cc(C(=O)O)ccc1F | 119 to 121 |
| O=C(O)C1=Cc2cc(F)ccc2OC1 | 209 to 211 |
| Cc1ccc(C#N)cc1S(N)(=O)=O | 194 to 196 |
| O=c1oc2cc(O)ccc2c2c1CCC2 | 214 to 216 |
| Nc1ccc(NC(=O)c2ccc(F)cc2)cc1C(F)(F)F | 120 to 122 |
| Sc1nc2ccccc2n1-c1ccccc1 | 140 to 145 |
| CC(=O)CN1C(=O)c2ccccc2S1(=O)=O | 144 to 146 |

| Structure (SMILES) | melting point [°C] |
| --- | --- |
| Cn1c(=O)n(C)c2cc(N)ccc21 | 148 to 150 |
| CN1C(=O)NC(=O)C12CCCCC2 | 172 to 174 |
| CN(C)S(=O)(=O)c1ccc(NCCO)c(C(=O)O)c1 | 176 to 178 |
| ClC1=Nc2c(cnn2-c2ccccc2)CN1 | 189 to 191 |
| Cc1cc(C)c2c(N)c(C(=O)NN)sc2n1 | 245 to 247 |
| Fc1cc(CCl)c2c(c1)COC(c1ccccc1)O2 (stereo not given) | 61 to 65 |
| NC(=S)c1cccc([N+](=O)[O-])c1 | 132 to 134 |
| O=S(=O)(Nc1cc(F)cc(F)c1)c1ccc(Cl)nc1 | 199 to 201 |
| Clc1nc(-c2ccccc2)nc2scc(-c3ccccc3)c12 | 147 to 149 |
| Cc1n[nH]c(C)c1S(=O)(=O)N(C)Cc1ccco1 | 160 to 163 |
| O=C(O)C(CO)NS(=O)(=O)c1ccc(Br)cc1 (stereo not given) | 239 to 241 |
| O=C(O)CNC(=O)c1ccc(F)c(F)c1 | 180 to 182 |
| Cc1ccn(-c2ccc(Cl)nn2)n1 | 169 to 171 |
| Cc1ccc(-c2nnc(N)o2)s1 | 247 to 249 |
| NNc1ccc([N+](=O)[O-])cn1 | 194 to 196 |
| CC(C)OC(=O)NNC(=O)CCl | 100 to 102 |
| Cc1cc(Cl)cc2cccnc12 | 62 to 64 |
| O=c1c(Cl)c(Cl)cnn1-c1ccc(Cl)cc1Cl | 200 to 202 |
| Cc1ccc(C(N)=S)o1 | 149 to 151 |
| Cc1ccc(Cl)c2ccc(Cl)nc12 | 61 to 63 |
| Cn1c(S)nc2cc(S(N)(=O)=O)ccc21 | 313 to 315 |
| O=C(O)c1cnc2c(OC(F)(F)F)cccc2c1O | 259 to 261 |
| COCCn1cc(C(=O)O)c2ccccc21 | 123 to 125 |

More lines, now with the values ahead:

| melting point [°C] | Structure (SMILES) |
| --- | --- |
| 148 to 150 | Cc1sc(C(=O)O)cc1S(=O)(=O)Cl |
| 113 to 115 | CC(=O)c1nnn(-c2ccc(Cl)cc2)c1C |
| 245 to 247 | Cn1cc(C(N)C(=O)O)cn1 (stereo not given) |
| 127 to 129 | CC(C)n1c(C(=O)O)cc(Br)c1Br |
| 135 to 137 | CCOC(=O)C1=NN(CC)C(=O)C1 |
| 89 to 91 | Cn1ncc2c1CCCC2=O |
| 199 to 201 | CC(=O)N1CCN(CC(N)=S)CC1 |
| 128 to 130 | CC(C(=O)O)c1ccc(N(C)C)cc1 (stereo not given) |
| 146 to 148 | COc1ccccc1NC(=O)CC(N)=S |
| 61 to 63 | CC(CSc1ccc(F)cc1)C(=O)O (stereo not given) |
| 315 to 317 | O=C(O)c1ccc2c(c1)[nH]c(=O)n2C1CCCC1 |
| 159 to 161 | CCOC(=O)c1[nH]c(C)c(C(=O)CCl)c1C |
| 139 to 141 | NC(=O)C1CCN(Cc2cccc(N)c2)CC1 |
| 70 to 72 | CC1CN(CC(C)C(=O)NN)CC(C)O1 (stereo not given) |
| 139 to 141 | Cc1cccc(NC(=O)N2CCCC(C(=O)O)C2)c1 (stereo not given) |
| 86 to 88 | O=C(O)C1CCCCN1C(=O)OCc1ccccc1 (stereo not given) |
| 216 to 218 | CCCCn1c(=O)[nH]c(=O)c2cc(C(=O)O)cnc21 |
| 162 to 164 | COc1cccc(-c2nn(-c3ccc(C)cc3)cc2C(=O)O)c1 |
| 190 to 193 | O=C(NC1CC1)c1cc(Cl)nc2ccccc12 |
| 86 to 88 | Cc1ccc(C#N)c(N2CCOCC2)c1 |
| 56 to 58 | O=S1(=O)CCC(CCBr)C1 (stereo not given) |
| 99 to 101 | O=C(O)CCCCN1CCOCC1 |
| 97 to 99 | NS(=O)(=O)CC1CCC1 |
| 103 to 105 | COc1cc(C(=O)O)cc(CC(C)Cl)c1OC (stereo not given) |

| melting point [°C] | Structure (SMILES) |
| --- | --- |
| 188 to 190 | O=C(O)COc1ccc2oc3c(c2c1)CCCC3 |
| 134 to 136 | Cc1ccc(Cn2nc(C)c(CCC(=O)O)c2C)cc1 |
| 104 to 106 | CC(C)(C)OC(=O)NC(CC#N)c1ccccc1 (stereo not given) |
| 148 to 150 | Nc1ccc(N2CCCC2)cc1C(=O)O |
| 145 to 147 | CN1C(=O)CC(C(=O)O)C1c1ccc(C(F)(F)F)cc1 (stereo not given) |
| 61 to 63 | CC(C)(C)OC(=O)N1CC2CCC(O)C2C1 (stereo not given) |
| 132 to 135 | NC1CCCCC1CO (stereo not given) |
| 190 to 192 | COc1ccc(C(=O)O)cc1OCCO |
| 147 to 151 | Cc1noc(C(C)C)c1C(=O)O |
| 179 to 181 | CC(C)(C)Oc1ccc(C(N)=S)cc1 |
| 227 to 229 | CC(C)(C)Cc1nc(-c2ccc(C(=O)O)cc2)no1 |
| 95 to 97 | CC(Oc1cccc(F)c1)C(=O)O (stereo not given) |
| 151 to 153 | C#CCN1CCC[C@H]1C(=O)O |
| 84 to 86 | CC(C)(C)OC(=O)N1CCC(COS(C)(=O)=O)CC1 |
| 169 to 171 | CC(C)(C)OC(=O)NC12CCC(C(=O)O)(C1)C2 |
| 105 to 107 | CC(C)CN1C(=O)c2ccccc2N2C(=O)CCC12C(=O)O (stereo not given) |
| 90 to 92 | CC(O)(Cc1ccccc1)C(=O)O (stereo not given) |
| 66 to 68 | CC(=O)c1sc(C(C)(C)C)nc1C |
| 159 to 161 | Cc1nn(C)c2c1NCC1CCCN21 (stereo not given) |
| 127 to 129 | O=C(NO)C1CC1 |
| 204 to 206 | CCn1c(=O)c(C)nc2cc(C(=O)O)ccc21 |
| 106 to 108 | CC(C)(C)OC(=O)N1CCC(O)(c2ccccc2CO)CC1 |
| 239 to 241 | CCNc1ccc(C(=O)O)cc1[N+](=O)[O-] |
